Data published in patent US7582803B2 (Amgen Inc., priority 2005, dated 2009).

Key:
[1] = molecular target: T1, human GPR40 (Homo sapiens, UniProt O14842); test: Cell-based aequorin assay; settings: CHO cells stably transfected with GPR40 and aequorin; 0.01% HSA; aequorin luminescence; read-out: Relative EC50
T1 construct: expressed in transfected cells; host or cells: CHO cells
Description: Cell-based aequorin assays were employed to characterize the modulatory activity of compounds on the GPR40 signaling pathway. In an exemplary assay, CHO cells were stably transfected with both GPR40 and Aequorin (Euroscreen). Cells were detached from the tissue culture dish with 2 mL of trypsin (0.25% (w/v)). Trypsinization was halted with 28 mL of Hanks Buffered Salt Solution containing 20 mM Hepes (H/HBSS) and 0.01% fatty acid-free human serum albumin (HSA). Coelantrazine is added to 1 ug/mL, and the cells were incubated for 2 hours at room temperature. Compounds were dissolved in DMSO for preparation of 10 mM stock solutions. Compounds were diluted in H/HBSS containing 0.01% HSA. Serial dilutions of the test compounds were prepared to determine dose response.
Aequorin luminescence measurements were made using an EG&G Berthold 96-well luminometer, and the response was measured over a 20 second interval after cells and compounds were mixed. The maximum relative light units was plotted to determine dose response. The EC50 (effective concentration to reach 50% maximal response) was determined from the dose response plot.
Table 1 presents representative data (EC50 values) obtained for exemplary compounds of the invention for the relative activation of human GPR40. […]

[2] = system: islet cells; test: Insulin secretion assay, human islet cells; format: cell-based; settings: KRBH with 11.2 mM glucose, insulin by SPA, read-out: EC50, stimulation of insulin secretion from islet cells
Description: Human islets were isolated from cadaveric donors. Islets were treated with trypsin (0.25% (w/v) and cells were seeded in 96-well plates containing 3,000 cells per well. Cells were cultured in Roswell Park Memorial Institute (RMPI) media containing 10% fetal bovine serum.
For determination of insulin secretion, media was removed from islet cells and replaced with Krebs-Ringer bicarbonate buffer containing 10 mM HEPES (KRBH) and 2 mM glucose. After one hour incubation, media was replaced with KRBH containing 11.2 mM glucose and test compounds. Insulin released into the medium from the islet cells was measured using scintillation proximity assay (SPA).

T1 sequence (O14842 whole entry): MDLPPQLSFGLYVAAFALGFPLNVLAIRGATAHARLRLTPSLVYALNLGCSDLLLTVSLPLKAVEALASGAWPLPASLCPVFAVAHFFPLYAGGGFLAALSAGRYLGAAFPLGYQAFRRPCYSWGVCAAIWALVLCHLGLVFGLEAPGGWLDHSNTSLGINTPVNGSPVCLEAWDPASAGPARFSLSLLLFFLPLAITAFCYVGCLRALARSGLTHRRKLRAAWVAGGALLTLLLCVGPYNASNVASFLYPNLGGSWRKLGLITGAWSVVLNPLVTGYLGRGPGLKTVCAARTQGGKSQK

| EC50 [1] [nM] | EC50 [2] [nM] | Compound |
| --- | --- | --- |
| 10 to 100 | < 1000 | CC#C[C@@H](CC(=O)O)c1ccc(OC2CCc3cc(-c4cccs4)ccc32)cc1 (stereo partly drawn) [Example 4, (3S)-3-[4-(5-Thiophen-2-yl-indan-1-yloxy)-phenyl]-hex-4-ynoic acid] |
| 1000 to 10000 | < 1000 | CC#C[C@@H](CC(=O)O)c1ccc(OC2CCc3c(-c4cccc(OCC)c4)cccc32)cc1 (stereo partly drawn) [Example 9, (3S)-3-{4-[4-(3-Ethoxy-phenyl)-indan-1-yloxy]-phenyl}-hex-4-ynoic acid] |
| 100 to 1000 | – | CCC1(CC)CCC(C)(C)c2ccc(COc3ccc([C@H](CC(=O)O)c4nccn4C)cc3)cc21 [Example 88, (S)-3-(4-((8,8-Diethyl-5,5-dimethyl-5,6,7,8-tetrahydronaphthalen-2-yl)methoxy)phenyl)-3-(1-methyl-1H-imidazol-2-yl)propanoic acid] |
| 100 to 1000 | – | CC1(C)CCC(C)(C)c2cc(COc3ccc([C@H](CC(=O)O)c4ccc(F)cc4)cc3)ccc21 [Example 89, (S)-3-(4-Fluorophenyl)-3-(4-((5,5,8,8-tetramethyl-5,6,7,8-tetrahydronaphthalen-2-yl)methoxy)phenyl)propanoic acid] |
| 1000 to 10000 | – | CC1(C)CCC(C)(C)c2cc(COc3ccc([C@@H](CC(=O)O)c4ccc(F)cc4)cc3)ccc21 [Example 90, (R)-3-(4-Fluorophenyl)-3-(4-((5,5,8,8-tetramethyl-5,6,7,8-tetrahydronaphthalen-2-yl)methoxy)phenyl)propanoic acid] |
| 100 to 1000 | – | Cn1ccnc1[C@@H](CC(=O)O)c1ccc(OCc2cc3c(cc2Br)C(C)(C)CCC3(C)C)cc1 [Example 91, (S)-3-(4-((3-Bromo-5,5,8,8-tetramethyl-5,6,7,8-tetrahydronaphthalen-2-yl)methoxy)phenyl)-3-(1-methyl-1H-imidazol-2-yl)propanoic acid] |
| > 10000 | – | Cn1ccnc1[C@@H](CC(=O)O)c1ccc(OCc2cc3c(cc2C2CC2)C(C)(C)CCC3(C)C)cc1 [Example 92, (S)-3-(4-((3-Cyclopopyl-5,5,8,8-tetramethyl-5,6,7,8-tetrahydronaphthalen-2-yl)methoxy)phenyl)-3-(1-methyl-1H-imidazol-2-yl)propanoic acid] |
| 100 to 1000 | – | Cc1cc2c(cc1COc1ccc([C@H](CC(=O)O)c3nccn3C)cc1)C(C)(C)CCC2(C)C [Example 93, (S)-3-(4-((3-Methyl-5,5,8,8-tetramethyl-5,6,7,8-tetrahydronaphthalen-2-yl)methoxy)phenyl)-3-(1-methyl-1H-imidazol-2-yl)propanoic acid] |
| 100 to 1000 | – | CCc1cc2c(cc1COc1ccc([C@H](CC(=O)O)c3nccn3C)cc1)C(C)(C)CCC2(C)C [Example 94, (S)-3-(4-((3-Ethyl-5,5,8,8-tetramethyl-5,6,7,8-tetrahydronaphthalen-2-yl)methoxy)phenyl)-3-(1-methyl-1H-imidazol-2-yl)propanoic acid] |
